Experimental data published in article PMC2229574 (The Journal of General Physiology, 2003).
Several values for one entry are separate records, joined by “and”; a condition that tells them apart may be missing. Equal values may be shown once. Read-outs that look alike come from different tables or passages of the source.

Assays:
[1] = test system: hybrid AChR (one wild-type α-subunit and one D97A α-subunit), hybrid 1; details: 20 mM choline
mouse AChR αD97P = mouse AChR αD97P (Mus musculus, UniProt P02716+P04756+P20782, D117P); details: for α2 (diliganded channel closing rate constant): 0.4 mM choline; for β2 (diliganded channel opening rate constant): 20 mM choline; for L2 (diliganded gating equilibrium constant, β2/α2) / L2-ratio (mut/wt): choline
mouse AChR αD97H [2] = biological target: T1, mouse AChR αD97H (Mus musculus, UniProt P02716+P04756+P20782, D117H); assay: cell-based
[3] = biological target: mouse AChR δ-subunit D99V (Mus musculus, UniProt P02716+P04756+P20782, D123V); details: 20 mM choline
mouse AChR αD97H [4] = biological target: T1, mouse AChR αD97H; details: for L2: kinetic modeling
mouse AChR αD97M = mouse AChR αD97M (Mus musculus, UniProt P02716+P04756+P20782, D117M)
mouse AChR αD97M, sequence (P04756 21-457 D117M): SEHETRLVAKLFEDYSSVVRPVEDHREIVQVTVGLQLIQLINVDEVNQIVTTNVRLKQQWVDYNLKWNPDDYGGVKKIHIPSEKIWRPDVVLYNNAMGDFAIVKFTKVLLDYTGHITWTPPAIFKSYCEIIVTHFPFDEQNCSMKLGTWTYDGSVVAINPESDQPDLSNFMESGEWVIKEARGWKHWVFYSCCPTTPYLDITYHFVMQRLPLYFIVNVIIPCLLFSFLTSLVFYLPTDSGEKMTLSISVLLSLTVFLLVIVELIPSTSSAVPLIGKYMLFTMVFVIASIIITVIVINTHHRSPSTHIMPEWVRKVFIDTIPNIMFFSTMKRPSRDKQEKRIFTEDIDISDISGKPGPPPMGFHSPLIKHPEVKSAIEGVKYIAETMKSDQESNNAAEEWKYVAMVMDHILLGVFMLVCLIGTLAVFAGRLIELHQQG
mouse AChR αD97M, sequence (P09690 24-501 partner): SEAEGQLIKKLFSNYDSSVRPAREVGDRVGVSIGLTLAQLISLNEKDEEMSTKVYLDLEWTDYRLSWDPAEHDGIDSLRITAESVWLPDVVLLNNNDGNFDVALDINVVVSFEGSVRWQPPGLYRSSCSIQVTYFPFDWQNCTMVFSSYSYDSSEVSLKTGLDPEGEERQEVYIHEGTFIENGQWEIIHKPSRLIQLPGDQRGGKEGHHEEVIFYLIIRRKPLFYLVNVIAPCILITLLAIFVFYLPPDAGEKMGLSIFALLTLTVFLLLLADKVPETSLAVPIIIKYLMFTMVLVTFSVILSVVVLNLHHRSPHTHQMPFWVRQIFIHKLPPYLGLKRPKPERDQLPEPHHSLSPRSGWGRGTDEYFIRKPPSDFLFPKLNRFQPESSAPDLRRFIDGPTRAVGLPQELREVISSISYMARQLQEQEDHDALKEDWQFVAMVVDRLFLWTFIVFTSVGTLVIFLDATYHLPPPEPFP
mouse AChR αD97M, sequence (P02716 25-520): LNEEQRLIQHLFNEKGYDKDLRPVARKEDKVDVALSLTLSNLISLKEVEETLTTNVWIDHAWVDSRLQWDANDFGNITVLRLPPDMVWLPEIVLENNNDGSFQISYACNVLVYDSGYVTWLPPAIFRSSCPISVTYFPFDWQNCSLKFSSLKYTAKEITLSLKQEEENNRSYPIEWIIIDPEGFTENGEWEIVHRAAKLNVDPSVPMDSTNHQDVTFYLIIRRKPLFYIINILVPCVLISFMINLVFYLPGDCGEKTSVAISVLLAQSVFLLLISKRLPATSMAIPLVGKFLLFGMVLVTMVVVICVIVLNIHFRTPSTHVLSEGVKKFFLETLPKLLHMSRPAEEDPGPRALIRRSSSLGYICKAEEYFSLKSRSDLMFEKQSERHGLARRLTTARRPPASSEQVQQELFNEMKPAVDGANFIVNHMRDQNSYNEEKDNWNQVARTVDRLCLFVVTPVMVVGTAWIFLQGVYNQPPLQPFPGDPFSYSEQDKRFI
mouse AChR αD97M, sequence (P20782 21-493, stated change not applied): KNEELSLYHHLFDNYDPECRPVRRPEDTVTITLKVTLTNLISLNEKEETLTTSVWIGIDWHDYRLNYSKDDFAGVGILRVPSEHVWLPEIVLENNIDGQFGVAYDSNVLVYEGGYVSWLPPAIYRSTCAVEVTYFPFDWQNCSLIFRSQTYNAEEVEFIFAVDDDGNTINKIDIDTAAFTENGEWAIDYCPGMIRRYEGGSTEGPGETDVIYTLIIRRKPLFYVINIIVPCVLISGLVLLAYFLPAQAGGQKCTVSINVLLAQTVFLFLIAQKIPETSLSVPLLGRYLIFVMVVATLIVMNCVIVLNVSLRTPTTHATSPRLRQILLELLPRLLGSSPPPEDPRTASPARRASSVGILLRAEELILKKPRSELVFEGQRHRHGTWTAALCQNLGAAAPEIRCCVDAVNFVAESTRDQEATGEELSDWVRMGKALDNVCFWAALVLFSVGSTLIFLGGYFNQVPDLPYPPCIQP

mouse AChR αD97Q = mouse AChR αD97Q (Mus musculus, UniProt P02716+P04756+P20782, D117Q)
[5] = biological target: mouse AChR δ-subunit D99A (Mus musculus, UniProt P02716+P04756+P20782, D123A); details: 20 mM choline
mouse AChR αD97L = mouse AChR αD97L (Mus musculus, UniProt P02716+P04756+P20782, D117L)
mouse AChR αD97C = mouse AChR αD97C (Mus musculus, UniProt P02716+P04756+P20782, D117C)
mouse AChR αD97I = mouse AChR αD97I (Mus musculus, UniProt P02716+P04756+P20782, D117I)
mouse AChR αD97I, sequence (P04756 21-457 D117I): as the sequence (P04756 21-457 D117M) above, with M97I counted along it
mouse AChR αD97I, sequence (P09690 24-501 partner): as the sequence (P09690 24-501 partner) above
mouse AChR αD97I, sequence (P02716 25-520): as the sequence (P02716 25-520) above
mouse AChR αD97I, sequence (P20782 21-493, stated change not applied): as the sequence (P20782 21-493, stated change not applied) above

mouse AChR αD97E [6] = biological target: T2, mouse AChR αD97E (Mus musculus, UniProt P02716+P04756+P20782, D117E); details: for L2: kinetic modeling
mouse AChR αD97E [7] = biological target: T2, mouse AChR αD97E; assay: cell-based
[8] = biological target: mouse AChR ɛ-subunit D97A (Mus musculus, UniProt P02716+P04756+P20782, D117A); details: 20 mM choline
[9] = read-out: k+ (association rate constant, single TBS)
[10] = read-out: k− (dissociation rate constant, single TBS)
[11] = choline, Scheme I, listed as Choline
[12] = joint fit choline 1, 2 and 5 mM, Scheme I

C[N+](C)(C)CCO [choline]
ΔΔG0 for channel gating, 0.59 ln(L2^wt/L2^mut) [1]: 1.96 kcal mol^−1
α2 (diliganded channel closing rate constant) (mouse AChR αD97P; αD97P kinetic mode P1): 2,276 s^−1
β2 (diliganded channel opening rate constant) (mouse AChR αD97P; αD97P kinetic mode P1): 322 s⁻¹
L2 (diliganded gating equilibrium constant, β2/α2) (mouse AChR αD97P; αD97P kinetic mode P1): 0.141
L2-ratio (mut/wt) (mouse AChR αD97P; αD97P kinetic mode P1): 2.97
α2 (diliganded channel closing rate constant) (mouse AChR αD97P; αD97P kinetic mode P2): 2,276 s^−1
β2 (diliganded channel opening rate constant) (mouse AChR αD97P; αD97P kinetic mode P2): 1,396 s^−1
L2 (diliganded gating equilibrium constant, β2/α2) (mouse AChR αD97P; αD97P kinetic mode P2): 0.613
L2-ratio (mut/wt) (mouse AChR αD97P; αD97P kinetic mode P2): 12.88
Kd (mouse AChR αD97H [2]; Kd (k−/k+), αD97H, choline, kinetic modeling, Scheme I): 2800 µM and 2840 µM
kon (mouse AChR αD97H [2]; [9]): 1.06e+06 M⁻¹ s⁻¹
koff (mouse AChR αD97H [2]; [10]): 2990 s⁻¹
α2* (apparent channel closing rate constant) [3]: 561 s⁻¹
β2 (channel opening rate constant) [3]: 117 s⁻¹
α2 (diliganded channel closing rate constant) (mouse AChR αD97H [4]; 0.4 mM choline): 1,938 s^−1
β2 (diliganded channel opening rate constant) (mouse AChR αD97H [4]; 20 mM choline): 1,840 s^−1
L2 (diliganded gating equilibrium constant, β2/α2) (mouse AChR αD97H [4]; choline): 0.949
L2-ratio (mut/wt) (mouse AChR αD97H [4]; choline): 19.94
L2 (equilibrium gating constant) from Popen dose–response analysis (mouse AChR αD97H [4]; choline, fit by Eq. 2): 1.1 ± 0.5
L2 (mouse AChR αD97H [4]; choline, Scheme I): 1.2 ± 0.1
L2 (mouse AChR αD97H [4]; [11]): 1.15 ± 0.14
α2 (mouse AChR αD97H [4]; [12]): 2,759 ± 149 s^−1
β2 (mouse AChR αD97H [4]; [12]): 3,189 ± 168 s^−1
α2 (diliganded channel closing rate constant) (mouse AChR αD97M; 0.4 mM choline): 2,255 s^−1
β2 (diliganded channel opening rate constant) (mouse AChR αD97M; 20 mM choline): 835 s⁻¹
L2 (diliganded gating equilibrium constant, β2/α2) (mouse AChR αD97M; choline): 0.370
L2-ratio (mut/wt) (mouse AChR αD97M; choline): 7.78
α2 (diliganded channel closing rate constant) (mouse AChR αD97Q; 0.4 mM choline): 2,016 s^−1
β2 (diliganded channel opening rate constant) (mouse AChR αD97Q; 20 mM choline): 6,006 s^−1
L2 (diliganded gating equilibrium constant, β2/α2) (mouse AChR αD97Q; choline): 2.979
L2-ratio (mut/wt) (mouse AChR αD97Q; choline): 62.56
α2* (apparent channel closing rate constant) [5]: 630 s⁻¹
β2 (channel opening rate constant) [5]: 146 s⁻¹
α2 (diliganded channel closing rate constant) (mouse AChR αD97L; 0.4 mM choline): 2,684 s^−1
β2 (diliganded channel opening rate constant) (mouse AChR αD97L; 20 mM choline): 91 s⁻¹
L2 (diliganded gating equilibrium constant, β2/α2) (mouse AChR αD97L; choline): 0.034
L2-ratio (mut/wt) (mouse AChR αD97L; choline): 0.71
α2 (diliganded channel closing rate constant) (mouse AChR αD97C; 0.4 mM choline): 2,172 s^−1
β2 (diliganded channel opening rate constant) (mouse AChR αD97C; 20 mM choline): 531 s⁻¹
L2 (diliganded gating equilibrium constant, β2/α2) (mouse AChR αD97C; choline): 0.244
L2-ratio (mut/wt) (mouse AChR αD97C; choline): 5.13
α2 (diliganded channel closing rate constant) (mouse AChR αD97I; 0.4 mM choline): 2,801 s^−1
β2 (diliganded channel opening rate constant) (mouse AChR αD97I; 20 mM choline): 60 s⁻¹
L2 (diliganded gating equilibrium constant, β2/α2) (mouse AChR αD97I; choline): 0.022
L2-ratio (mut/wt) (mouse AChR αD97I; choline): 0.45
α2 (diliganded channel closing rate constant) (mouse AChR αD97E [6]; 0.4 mM choline): 2,076 s^−1
β2 (diliganded channel opening rate constant) (mouse AChR αD97E [6]; 20 mM choline): 2,967 s^−1
L2 (diliganded gating equilibrium constant, β2/α2) (mouse AChR αD97E [6]; choline): 1.429
β2 from saturation of the effective opening rate (mouse AChR αD97E [6]; choline, fit by Eq. 1): 2,875 s^−1
L2 (equilibrium gating constant) from Popen dose–response analysis (mouse AChR αD97E [6]; choline, fit by Eq. 2): 2.9 ± 0.7 and 2.9
L2 (mouse AChR αD97E [6]; choline, Scheme I): 1.3 ± 0.2
L2 (mouse AChR αD97E [6]; [11]): 1.31 ± 0.21
α2 (mouse AChR αD97E [6]; [12]): 2,293 ± 214 s^−1
β2 (mouse AChR αD97E [6]; [12]): 3,024 ± 131 s^−1
Kd (mouse AChR αD97E [7]; Kd (k−/k+), αD97E, choline, kinetic modeling, Scheme I): 2100 µM and 2140 µM
kon (mouse AChR αD97E [7]; [9]): 2.84e+06 M⁻¹ s⁻¹
koff (mouse AChR αD97E [7]; [10]): 6070 s⁻¹
α2* (apparent channel closing rate constant) [8]: 645 s⁻¹
